Test results taken from patent publication EP3597653A1, “CYCLIC INHIBITORS OF HEPATITIS B VIRUS” (IRBM S.P.A., priority 2018, dated 2020).

Tested on: HBV
Test: HBV inhibition assay in HepAD38 cells (extracellular HBV DNA by direct qPCR)
Format: cell-based
Conditions: Hepatitis B virus, 8-point dose-response curve, 96 hours, read-out: HBV inh EC50
Text: HepAD38 cell line (Ladner et al., Antimicrob Agents Chemother, 1997, 41, 1715-20) was used for HBV inhibition assays. HepAD38 is a subclone, derived from Hepatoblastoma cell line HepG2 (ATCC® Number: HB-8065™), that expresses HBV genome under the control of a tetracycline-responsive promoter in a TET-OFF system: addition of tetracycline suppresses HBV replication, while its removal switches on the process allowing HBV viral particles release in the cell supernatant. HepAD38 cell line is maintained in DMEM/F12, supplemented with 10% of fetal bovine serum, 1% of glutamine, 1% of penicillin/streptomycin, 0.4 mg/ml G418 and 0,3 ug/ml tetracycline. For the HBV inhibition assay, doxycycline-free medium is used in order to allow virion production.
HBV inhibition activity in vitro was performed in 96 multiwell plates. During the initial (primary) screening compounds were first tested in triplicates at concentrations of 0.1µM, 0.5µM amd 1µM. For selected compounds, an 8-point dose-response curve can be obtained using 1:2 serial dilutions (starting from 2.5 µM, 1.25µM or 0.4 µM, depending on the degree of inhibition observed during the primary screening). From the dose-response curves, half maximal effective concentration (EC50) can be calculated (see also below).
In more detail, compounds - typically dissolved in DMSO stock solutions - are diluted to 2x the final desired concentration in 100 µl of the above medium (without doxycycline) and plated in three replicates in the 96-well plates.
Simultaneously, HepAD38 cells - extensively pre-washed in tetracycline-free medium in order to induce HBV production - are suspended at 2*10^4 cells in 100 µl of tetracycline-free medium and added to each well of the plate, to yield a final assay volume of 200 µl DMSO - used for stock solutions and compounds dilutions - which is always present in the assays at a final concentration of 0.5%.
Plates are then incubated 96 hours at 37°C and then subjected to cell viability assay in order to define compounds cytotoxicity and to extracellular HBV quantification in order to evaluate antiviral activity of compounds. Cytotoxicity is assessed by a commercial fluorescence assay that measures the metabolic activity of cells, directly related to cell viability (Cell Titer Blue, Promega). Anti-HBV activity was evaluated by quantification of extracellular HBV DNA with direct qPCR. In particular, supernatant was collected and centrifuged for cell debris clarification, viral DNA was extracted from virions by addition of lysis buffer (1 mM 1,4-dithiothreitol, 0.2% sodium dodecyl sulphate) and incubated at 95°C for 10 min. Samples were then diluted 1:40 and real time PCR amplification was performed with SYBR green assay (Power SYBR™ Green PCR Master Mix-Thermo Fisher Scientific) and specific HBV primer (HBV-DF:5'-[…]-3' (SEQ ID No. 1), HBV-DR:5'-[…]-3' (SEQ ID No. 2)).
All HBV inhibition or antiviral activity data are typically reported in percent (%) relative to a non-treated reference sample. Excel and Graphpad Prism programs are typically used for data elaboration and EC50 calculation.

SMILES	EC50 [nM]
O=C(Nc1cc(F)c(F)c(F)c1)c1cc2c(cc1F)NCNS2(=O)=O [Example E71, 6-fluoro-N-(3,4,5-trifluorophenyl)-3,4-dihydro-2H-benzo[e][1,2,4]thiadiazine-7-carboxamide 1,1-dioxide]	< 1000
O=C(Nc1cc(F)c(F)c(F)c1)c1cc(F)c2c(c1)S(=O)(=O)NCN2 [Example E72, 5-fluoro-N-(3,4,5-trifluorophenyl)-3,4-dihydro-2H-benzo[e][1,2,4]thiadiazine-7-carboxamide 1,1-dioxide]	> 1000

Same assay, conditions: Hepatitis B virus, compound at 0.5 µM, 96 hours, relative to non-treated reference, read-out: Anti HBV Activity (conc µM)

SMILES	inhibition at 0.5 µM [%]
O=C(Nc1cc(F)c(F)c(F)c1)c1ccc2c(c1)S(=O)(=O)NC(c1ncccn1)N2 (centres unmarked) [Example E54, 3-(pyrimidin-2-yl)-N-(3,4,5-trifluorophenyl)-3,4-dihydro-2H-benzo[e][1,2,4]thiadiazine-7-carboxamide 1,1-dioxide]	> 50
CC1(c2cnccn2)Nc2ccc(C(=O)Nc3cc(F)c(F)c(F)c3)cc2S(=O)(=O)N1 (centres unmarked) [Example E55, 3-methyl-3-(pyrazin-2-yl)-N-(3,4,5-trifluorophenyl)-3,4-dihydro-2H-benzo[e][1,2,4]thiadiazine-7-carboxamide 1,1-dioxide]	> 50
O=C(Nc1cc(F)c(F)c(F)c1)c1ccc2c(c1)S(=O)(=O)NC1(N2)C(=O)Nc2ncccc21 (centres unmarked) [Example E57, 2'-oxo-N-(3,4,5-trifluorophenyl)-1',2'-dihydro-2H,4H-spiro[benzo[e][1,2,4]thiadiazine-3,3'-pyrrolo[2,3-b]pyridine]-7-carboxamide 1,1-dioxide]	> 50
O=C(Nc1cc(F)c(F)c(F)c1)c1ccc2c(c1)S(=O)(=O)N([C@H]1CC[C@H](O)CC1)CN2 [Example E58, trans-2-(4-hydroxycyclohexyl)-N-(3,4,5-trifluorophenyl)-3,4-dihydro-2H-benzo[e][1,2,4]thiadiazine-7-carboxamide 1,1-dioxide]	< 50
O=C(Nc1cc(F)c(F)c(F)c1)c1ccc2c(c1)S(=O)(=O)N([C@H]1CC[C@@H](O)CC1)CN2 [Example E59, cis-2-(4-hydroxycyclohexyl)-N-(3,4,5-trifluorophenyl)-3,4-dihydro-2H-benzo[e][1,2,4]thiadiazine-7-carboxamide 1,1-dioxide]	< 50
O=C(Nc1cc(F)c(F)c(F)c1)c1ccc2c(c1)S(=O)(=O)N(C1CC1)CN2 [Example E60, 2-cyclopropyl-N-(3,4,5-trifluorophenyl)-3,4-dihydro-2H-benzo[e][1,2,4]thiadiazine-7-carboxamide 1,1-dioxide]	< 50
O=C(Nc1cc(F)c(F)c(F)c1)c1ccc2c(c1)S(=O)(=O)N(C1CCNCC1)CN2 [Example E61, 2-(piperidin-4-yl)-N-(3,4,5-trifluorophenyl)-3,4-dihydro-2H-benzo[e][1,2,4]thiadiazine-7-carboxamide 1,1-dioxide]	< 50
O=C(Nc1cc(F)c(F)c(F)c1)c1ccc2c(c1)S(=O)(=O)N1CCCC1N2 (centres unmarked) [Example E64, N-(3,4,5-trifluorophenyl)-2,3,10,10a-tetrahydro-1H-benzo[e]pyrrolo[1,2-b][1,2,4]thiadiazine-7-carboxamide 5,5-dioxide]	< 50
O=C(Nc1ccc(F)c(Cl)c1)c1ccc2c(c1)S(=O)(=O)NCN2 [Example E65, N-(3-chloro-4-fluorophenyl)-3,4-dihydro-2H-benzo[e][1,2,4]thiadiazine-7-carboxamide 1,1-dioxide]	> 50
C[C@@H](N1C(=O)Nc2ccc(C(=O)Nc3cc(F)c(F)c(F)c3)cc2S1(=O)=O)C(F)(F)F [Example E77, (R)-3-oxo-N-(3,4,5-trifluorophenyl)-2-(1,1,1-trifluoropropan-2-yl)-3,4-dihydro-2H-benzo[e][1,2,4]thiadiazine-7-carboxamide 1,1-dioxide]	< 50

Same assay, conditions: Hepatitis B virus, compound at 1 µM, 96 hours, relative to non-treated reference, read-out: Anti HBV Activity (conc µM)

SMILES	inhibition at 1 µM [%]
O=C(Nc1cc(F)c(F)c(F)c1)c1ccc2c(c1)S(=O)(=O)NC(c1cnc[nH]1)N2 (centres unmarked) [Example E51, 3-(1H-imidazol-5-yl)-N-(3,4,5-trifluorophenyl)-3,4-dihydro-2H-benzo[e][1,2,4]thiadiazine-7-carboxamide 1,1-dioxide]	< 50
O=C(Nc1cc(F)c(F)c(F)c1)c1ccc2c(c1)S(=O)(=O)NC(c1ccc(Cl)nc1)N2 (centres unmarked) [Example E52, 3-(6-chloropyridin-3-yl)-N-(3,4,5-trifluorophenyl)-3,4-dihydro-2H-benzo[e][1,2,4]thiadiazine-7-carboxamide 1,1-dioxide]	> 50
CC1(c2ccc(Cl)cn2)Nc2ccc(C(=O)Nc3cc(F)c(F)c(F)c3)cc2S(=O)(=O)N1 (centres unmarked) [Example E53, 3-(5-chloropyridin-2-yl)-3-methyl-N-(3,4,5-trifluorophenyl)-3,4-dihydro-2H-benzo[e][1,2,4]thiadiazine-7-carboxamide 1,1-dioxide]	> 50
O=C(Nc1cc(F)c(F)c(F)c1)c1ccc2c(c1)S(=O)(=O)N(CCO)CN2 [Example E62, 2-(2-hydroxyethyl)-N-(3,4,5-trifluorophenyl)-3,4-dihydro-2H-benzo[e][1,2,4]thiadiazine-7-carboxamide 1,1-dioxide]	< 50
CC1Nc2ccc(C(=O)Nc3cc(F)c(F)c(F)c3)cc2S(=O)(=O)N1CCO (centres unmarked) [Example E63, 2-(2-hydroxyethyl)-3-methyl-N-(3,4,5-trifluorophenyl)-3,4-dihydro-2H-benzo[e][1,2,4]thiadiazine-7-carboxamide 1,1-dioxide]	< 50
O=C(Nc1ccc(F)c(F)c1)c1ccc2c(c1)S(=O)(=O)NC=N2 [Example E66, N-(3,4-difluorophenyl)-2H-benzo[e][1,2,4]thiadiazine-7-carboxamide 1,1-dioxide]	< 50
CC1=Nc2ccc(C(=O)Nc3ccc(F)c(F)c3)cc2S(=O)(=O)N1 [Example E67, N-(3,4-difluorophenyl)-3-methyl-2H-benzo[e][1,2,4]thiadiazine-7-carboxamide 1,1-dioxide]	< 50
O=C(Nc1cc(F)c(F)c(F)c1)c1cc2c(cc1F)N=CNS2(=O)=O [Example E68, 6-fluoro-N-(3,4,5-trifluorophenyl)-2H-benzo[e][1,2,4]thiadiazine-7-carboxamide 1,1-dioxide]	< 50
NC1=Nc2ccc(C(=O)Nc3cc(F)c(F)c(F)c3)cc2S(=O)(=O)N1 [Example E69, 3-amino-N-(3,4,5-trifluorophenyl)-2H-benzo[e][1,2,4]thiadiazine-7-carboxamide 1,1-dioxide]	< 50
CC(=O)NC1=Nc2ccc(C(=O)Nc3cc(F)c(F)c(F)c3)cc2S(=O)(=O)N1 [Example E70, 3-acetamido-N-(3,4,5-trifluorophenyl)-2H-benzo[e][1,2,4]thiadiazine-7-carboxamide 1,1-dioxide]	< 50
CN1C=NS(=O)(=O)c2cc(C(=O)Nc3cc(F)c(F)c(F)c3)c(F)cc21 [Example E73, 6-fluoro-4-methyl-N-(3,4,5-trifluorophenyl)-4H-benzo[e][1,2,4]thiadiazine-7-carboxamide 1,1-dioxide]	< 50
O=C1Nc2ccc(C(=O)Nc3ccc(F)c(F)c3)cc2S(=O)(=O)N1 [Example E74, N-(3,4-difluorophenyl)-3-oxo-3,4-dihydro-2H-benzo[e][1,2,4]thiadiazine-7-carboxamide 1,1-dioxide]	< 50
O=C1Nc2ccc(C(=O)Nc3cc(F)c(F)c(F)c3)cc2S(=O)(=O)N1 [Example E75, 3-oxo-N-(3,4,5-trifluorophenyl)-3,4-dihydro-2H-benzo[e][1,2,4]thiadiazine-7-carboxamide 1,1-dioxide]	< 50
CN1C(=O)Nc2ccc(C(=O)Nc3cc(F)c(F)c(F)c3)cc2S1(=O)=O [Example E76, 2-methyl-3-oxo-N-(3,4,5-trifluorophenyl)-3,4-dihydro-2H-benzo[e][1,2,4]thiadiazine-7-carboxamide 1,1-dioxide]	> 50
